Strand notation (5' to 3'): a small letter for the sugar, then the base; units joined by * are phosphorothioate-linked, units joined directly phosphodiester-linked; [ ] holds rarer units or linkages, { } end groups; capitals alone tell only the bases. e = 2'-O-(2-methoxyethyl) (MOE); [5mC] = 5-methylcytosine; d = 2'-deoxy (DNA)

The term % inhibition denotes the change of the read-out against control, counted positive when it falls. A low value points to a weak effect.

The subject of this series is human PKK mRNA. Briefly: Antisense inhibition of human PKK mRNA in HepaRG cells, 3,000 nM (Example 1). As to conditions: relative to untreated control cells. It counts as cell-based. Here is the method: Antisense oligonucleotides were designed targeting a PKK nucleic acid and were tested for their effects on PKK mRNA in vitro. HepaRG™ cells, which are terminally differentiated hepatic cells derived from a human hepatic progenitor cell line and retain many characteristics of primary human hepatocytes (Lubberstedt M. et al., J. Pharmacol. Toxicol. Methods 2011 63: 59-68), were used in the screen.
The chimeric antisense oligonucleotides in the tables below were designed as 5-10-5 MOE gapmers. The gapmers are 20 nucleosides in length, wherein the central gap segment comprises of ten 2′-deoxynucleosides and is flanked by wing segments on the 5′ direction and the 3′ direction comprising five nucleosides each. Each nucleoside in the 5′ wing segment and each nucleoside in the 3′ wing segment has a 2′-O-methoxyethyl modification. The internucleoside linkages throughout each gapmer are phosphorothioate linkages. All cytosine residues throughout each gapmer are 5-methylcytosines. “Start site” indicates the 5′-most nucleoside to which the gapmer is targeted in the human gene sequence. “Stop site” indicates the 3′-most nucleoside to which the gapmer is targeted in the human gene sequence.
Cultured HepaRG™ cells at a density of 20,000 cells per well were transfected using electroporation with 3,000 nM antisense oligonucleotide. After a treatment period of approximately 24 hours, RNA was isolated from the cells and PKK mRNA levels were measured by quantitative real-time PCR. Human primer probe set RTS3454 (forward sequence […], designated herein as SEQ ID NO: 20; reverse sequence […], designated herein as SEQ ID NO: 21; probe sequence […], designated herein as SEQ ID NO: 22) was used to measure mRNA levels. PKK mRNA levels were adjusted according to total RNA content, as measured by RIBOGREEN®. The antisense oligonucleotides were tested in a series of experiments that had similar culture conditions. Results are presented as percent inhibition of PKK, relative to untreated control cells.

Where [1] appears, read: Table 3, HepaRG cells, electroporation with 3,000 nM antisense oligonucleotide, approx. 24 hours, PKK mRNA by RT-PCR (RTS3454).
Where [2] appears, read: Table 4, HepaRG cells, electroporation with 3,000 nM antisense oligonucleotide, approx. 24 hours, PKK mRNA by RT-PCR (RTS3454).
Setting [3] is: Table 1, PKK mRNA, HepaRG cells, 3,000 nM, electroporation, ~24 h.
Where [4] appears, read: Table 2, PKK mRNA, HepaRG cells, 3,000 nM, electroporation, ~24 h.

Consider “531149 (antisense eA*eG*eA*eG*eG*dT*dA*dA*dA*dG*d[5mC]*dA*dA*d[5mC]*dT*eT*eG*e[5mC]*e[5mC]*e[5mC]) [compound 531149]”, for which the “% inhibition” value under setting [1] was 45%. “531162 (antisense eA*eA*eT*eT*eT*d[5mC]*d[5mC]*d[5mC]*dA*dG*dA*dT*dG*dT*dA*eT*eT*eA*eG*eT) [compound 531162]”: the “% inhibition” value under setting [2] was 43%. The same measure, in the same setting: under “531173 (antisense eA*eA*eA*eA*eT*dA*dA*d[5mC]*dT*dT*d[5mC]*dA*d[5mC]*dT*dA*eG*eA*eG*e[5mC]*eT) [compound 531173]” stands 22%. Turning to “530938 (antisense eG*eG*eA*eA*eA*dT*dG*dA*dA*dA*dT*dA*dA*dG*dT*eT*eG*e[5mC]*eT*eT) [compound 530938]”, under setting [3], the “% inhibition” value was 11%. On the same count and under the same terms, under “530997 (eA*eA*eA*eA*e[5mC]*dT*dG*dA*d[5mC]*dA*dG*d[5mC]*dG*dA*dA*eT*e[5mC]*eA*eT*e[5mC]; antisense) [compound 530997]” stands 39%. “531091 (eT*e[5mC]*eA*eG*e[5mC]*d[5mC]*d[5mC]*dA*dA*dT*dG*dT*d[5mC]*d[5mC]*dT*eA*eA*e[5mC]*e[5mC]*eT; antisense) [compound 531091]”: under setting [1], the “% inhibition” value is given as 35%. For the substance “530987 (eA*e[5mC]*eT*e[5mC]*e[5mC]*d[5mC]*dG*dG*dG*dT*dA*dA*dA*dT*dT*eT*eT*eA*eG*eA; antisense) [compound 530987]”, the “% inhibition” value under setting [3] is listed as 0%. “531184 (antisense eA*e[5mC]*eT*e[5mC]*eT*dT*dA*dT*dT*dA*dG*d[5mC]*dT*dG*dG*eT*eA*eG*eA*eA) [compound 531184]”: the “% inhibition” value under setting [2] came to 74%. On the same count and under the same terms, under “531185 (antisense eG*eG*eA*e[5mC]*e[5mC]*dA*dA*dA*dA*d[5mC]*dT*dG*dA*dG*dA*eG*eG*e[5mC]*eA*eG) [compound 531185]” stands 63%. With “531042 (antisense eT*eT*eA*e[5mC]*e[5mC]*dA*dA*dA*dG*dG*dA*dA*dT*dA*dT*eT*eT*eA*e[5mC]*e[5mC]) [compound 531042]”, under setting [4], the “% inhibition” value was 11%. In the case of “530990 (eA*eT*eT*e[5mC]*eT*dT*d[5mC]*dT*d[5mC]*d[5mC]*dT*d[5mC]*d[5mC]*dA*dA*eA*eG*eT*e[5mC]*eA; antisense) [compound 530990]”, under setting [3], the “% inhibition” value was 32%. Take “531043 (antisense eA*eT*eT*eT*eG*dT*dT*dA*d[5mC]*d[5mC]*dA*dA*dA*dG*dG*eA*eA*eT*eA*eT) [compound 531043]”: the “% inhibition” value under setting [4] was determined as 27%.

“531186 (e[5mC]*e[5mC]*eA*eT*eT*dA*d[5mC]*dT*d[5mC]*dT*d[5mC]*dA*dA*dG*d[5mC]*eT*e[5mC]*e[5mC]*eA*e[5mC]; antisense) [compound 531186]”: the “% inhibition” value under setting [2] came out at 75%. Take “531167 (antisense e[5mC]*eA*eA*eG*eA*dA*dA*d[5mC]*d[5mC]*dA*d[5mC]*d[5mC]*dA*dA*dA*eG*eG*eA*eA*eG) [compound 531167]”: the “% inhibition” value under setting [2] stood at 37%.

On to “531155 (antisense e[5mC]*eT*eT*e[5mC]*eT*dT*dG*dT*d[5mC]*dT*d[5mC]*dA*dG*dA*dT*eT*eA*e[5mC]*e[5mC]*eA) [compound 531155]”, for which, under setting [1], the “% inhibition” value turned out to be 79%. Regarding “530969 (antisense eG*eT*eG*e[5mC]*e[5mC]*dA*d[5mC]*dT*dT*dT*d[5mC]*dA*dG*dA*dT*eG*eT*eT*eT*eT) [compound 530969]”, the “% inhibition” value under setting [3] worked out at 0%.

For “530950 (antisense eA*e[5mC]*e[5mC]*eT*eT*dG*dG*dG*dT*dG*dG*dA*dA*dT*dG*eT*eG*e[5mC]*eA*e[5mC]) [compound 530950]”, the “% inhibition” value under setting [3] is 47%. In the case of “531133 (antisense eT*eT*eT*eT*eG*dT*dT*dG*dT*dG*d[5mC]*dA*dG*dA*d[5mC]*eT*eG*eA*eA*eA) [compound 531133]”, the “% inhibition” value under setting [1] was found to be 19%. For the substance “531053 (antisense eA*eG*e[5mC]*eA*e[5mC]*dA*dG*dA*d[5mC]*d[5mC]*dA*dT*d[5mC]*d[5mC]*dG*eT*eT*eG*eG*eG) [compound 531053]”, the “% inhibition” value under setting [4] turned out to be 49%. Same read-out and setting: next, “531060 (antisense eT*eG*eG*eT*eG*dA*dT*dG*d[5mC]*d[5mC]*d[5mC]*dA*d[5mC]*d[5mC]*dA*eA*eA*e[5mC]*eG*e[5mC]) [compound 531060]”: 35%.

On to “531177 (antisense eT*eT*e[5mC]*eT*eT*dG*dT*dA*dA*dA*dT*dG*dT*d[5mC]*dT*eG*eA*eA*eT*eT) [compound 531177]”, for which the “% inhibition” value under setting [2] stood at 61%. Take “530993 (e[5mC]*eA*eA*eA*e[5mC]*dA*dT*dT*d[5mC]*dA*d[5mC]*dT*d[5mC]*d[5mC]*dT*eT*eT*eA*eA*e[5mC]; antisense) [compound 530993]”: the “% inhibition” value under setting [3] is 30%. For the substance “531099 (eT*eG*eG*eA*eT*dG*dG*dG*dT*dA*dG*dA*dG*dG*d[5mC]*e[5mC]*eT*eT*eT*e[5mC]; antisense) [compound 531099]”, the “% inhibition” value under setting [1] stood at 64%. With “531054 (antisense e[5mC]*eT*eT*eT*eA*dT*dA*dG*d[5mC]*d[5mC]*dA*dG*d[5mC]*dA*d[5mC]*eA*eG*eA*e[5mC]*e[5mC]) [compound 531054]”, the “% inhibition” value under setting [4] worked out at 48%. Regarding “530996 (eT*eG*eA*e[5mC]*eA*dG*d[5mC]*dG*dA*dA*dT*d[5mC]*dA*dT*d[5mC]*eT*eT*eT*eG*eT; antisense) [compound 530996]”, the “% inhibition” value under setting [3] amounted to 51%. For the substance “531217 (eG*eT*eG*eG*eA*dA*dT*dA*dA*dA*d[5mC]*d[5mC]*dA*dT*dA*eA*eT*e[5mC]*eT*eA; antisense) [compound 531217]”, under setting [2], the “% inhibition” value is 47%.

Turning to “530955 (antisense e[5mC]*eA*eA*eA*e[5mC]*d[5mC]*dT*dT*dT*dT*d[5mC]*dT*d[5mC]*d[5mC]*dA*eT*eG*eT*e[5mC]*eA) [compound 530955]”, under setting [3], the “% inhibition” value came to 55%. As to “531021 (eG*eT*e[5mC]*eT*eG*dA*d[5mC]*dA*dG*dA*dT*dT*dT*dA*dA*eA*eA*eT*eG*e[5mC]; antisense) [compound 531021]”, the “% inhibition” value under setting [4] is reported as 50%. “531017 (eA*e[5mC]*eT*eG*eG*dT*dG*dT*d[5mC]*d[5mC]*dT*dA*dT*dG*dA*eG*eT*eG*eA*e[5mC]; antisense) [compound 531017]”: the “% inhibition” value under setting [4] is recorded as 31%. Same read-out and setting: under “531072 (eG*e[5mC]*eT*e[5mC]*eA*dG*dA*dA*dT*dT*dT*dG*dA*d[5mC]*dT*eT*eG*eA*eA*e[5mC]; antisense) [compound 531072]” stands 64%.

For the substance “531237 (eG*eT*eG*eG*eA*dA*dT*dG*dT*d[5mC]*dA*dT*dG*dG*d[5mC]*eA*eA*eT*eT*eT; antisense) [compound 531237]”, the “% inhibition” value under setting [2] came out at 56%.

Regarding “531031 (antisense eT*eT*eT*eG*eG*dA*dA*dT*dT*d[5mC]*dA*dG*dT*dG*dT*eA*eA*eT*eT*e[5mC]) [compound 531031]”, the “% inhibition” value under setting [4] was found to be 59%. Regarding “531090 (eA*e[5mC]*eA*eG*eA*dA*dA*d[5mC]*d[5mC]*dA*dT*dG*dA*dT*dG*eT*eT*eG*e[5mC]*eT; antisense) [compound 531090]”, under setting [1], the “% inhibition” value is given as 59%. On to “531081 (eT*eG*eG*eT*eT*dT*dT*dT*dG*dG*dA*dA*dT*dT*d[5mC]*eT*eG*eA*eA*eA; antisense) [compound 531081]”, for which the “% inhibition” value under setting [4] is reported as 14%.

Consider “530982 (antisense eT*eA*eA*eA*eG*dT*dT*d[5mC]*dT*dT*dT*dT*dG*d[5mC]*dA*eG*eG*eT*eT*eA) [compound 530982]”, for which the “% inhibition” value under setting [3] is on record as 0%. Same read-out and setting: under “530957 (antisense eG*eG*e[5mC]*eA*eA*dG*d[5mC]*dA*d[5mC]*dT*dT*dA*dT*dT*dT*eG*eA*eT*eG*eA) [compound 530957]” stands 56%. With “531102 (eT*eG*e[5mC]*e[5mC]*eT*d[5mC]*dT*dT*dT*dA*dA*dT*dA*dA*dA*eA*eA*e[5mC]*eT*e[5mC]; antisense) [compound 531102]”, the “% inhibition” value under setting [1] came out at 42%. As for “530966 (antisense eA*eA*eT*eT*eT*d[5mC]*dT*dG*dA*dA*dA*dG*dG*dG*d[5mC]*eA*e[5mC]*eA*eG*eG) [compound 530966]”, the “% inhibition” value under setting [3] is on record as 58%.

Take “531227 (eT*eA*e[5mC]*e[5mC]*eA*dA*dT*dT*dT*d[5mC]*dT*dG*dA*dA*dA*eG*eG*eG*e[5mC]*eA; antisense) [compound 531227]”: the “% inhibition” value under setting [2] was determined as 72%. Turning to “531009 (eT*eT*eT*eG*eT*dT*d[5mC]*d[5mC]*dT*d[5mC]*d[5mC]*dA*dA*d[5mC]*dA*eA*eT*eG*e[5mC]*eG; antisense) [compound 531009]”, the “% inhibition” value under setting [4] was found to be 65%.

Values taken from US11840686B2, “Modulation of prekallikrein (PKK) expression” (Ionis Pharmaceuticals, Inc., priority 2013, dated 2023).
